Laboratory results from patent publication US20230031385A1, “STORAGE MEDIA FOR PRESERVATION OF CORNEAL TISSUE” (National Health Research Institutes, priority 2021, published 2023).

Legend:
[1] = system: bovine corneal endothelium cells; test: TUNEL assay of AAPH induced apoptosis; assay type: cell-based; conditions: ferulic acid 50 μM and 100 μM, AAPH 25 mM (FIG. 4)
Procedure: Terminal deoxynucleotidyl transferase (TdT) end-labeling (TUNEL) method (DeadEnd™ Fluorometric TUNEL System, Promega, Madison, USA) was used for apoptosis analysis according to the manufacturer's instructions (FIG. 4). Briefly, bovine cornea endothelium cells were seeded on LabTek® chamber slides at a density of 1×10^4 cells/well for 24 hours, treated with 50 μM ferulic acid for 3 hours, and then reacted with 25 mM AAPH (2,2′-azobis(2-amidinopropane dihydrochloride) for 6 hours. Slides were immersed in 4% formaldehyde for fixation, cells were permeabilized with Triton® X-100. Then equilibration buffer, nucleotide mix and rTdT enzyme were added in for apoptosis cells labeling. Finally, counterstaining the nucleus with propidium iodide, and observed by fluorescence microscopy. The green fluorescence spots in FIG. 4 represents the apoptotic cells (fluorescein-12-dUTP) with a red background (propidium iodide).

[2] = system: human corneal endothelium cells (HCECs); test: Annexin V-FITC / propidium iodide flow cytometry apoptosis assay; assay type: cell-based; conditions: 50 μM and 100 μM, 24 hours (FIG. 3)
Procedure: Annexin V staining is a common method for detecting apoptotic cells. The human corneal endothelium cells (HCECs) were assessed for apoptosis using flow cytometry staining with annexin-V conjugated with fluorescein isothiocyanate and propidium iodide (FIG. 3). HCECs were cultured in DMEM/F12 containing 50 μM and 100 μM ferulic acid. Briefly, HCECs were grown to confluence and incubated for 24 hours in 24-well plates using the same conditions as in the previous sets of experiments. After centrifugation and washing in cold PBS, HCECs for annexin V-FITC staining were resuspended in binding buffer (10 mM HEPES, 140 mM sodium chloride, 5 mM potassium chloride, 1 mM magnesium dichloride, 2.5 mM calcium dichloride, pH 7.4) at a concentration of 10^6 cells/ml. Five hundred microliters containing 5×10^5 cells was transferred to a culture tube, and […] of FITC-conjugated annexin V was added. Positive controls were provided for both apoptotic and necrotic (10% ethanol) cell death. For simultaneous scoring of the differential cellular response, aliquots of 10^4 cells each were immediately processed for fluorescence-activated cell sorting (FACS) on a FACS Calibur flow cytometer (Becton-Dickinson). Excitation parameters were set at λEx=488 nm, and fluorescence emission was detected at […]=518 nm for annexin V-FITC.

Structure (SMILES): COc1cc(/C=C/C(=O)O)ccc1O [ferulic acid]
- protection against AAPH induced damage (apoptosis, TUNEL) [1]: prevented and/or antagonized AAPH (25 mM) induced damage
- cytotoxicity (apoptosis, annexin-V/PI) [2]: no cytotoxic effect
